Reference: publication PMC11087268, “A folate inhibitor exploits metabolic differences in Pseudomonas aeruginosa for narrow-spectrum targeting” (Nature Microbiology, 2024)
Values joined by “and” are separate entries in the source; they are usually repeats but may differ in a detail not shown here. Identical values can stand only once. Like-named read-outs stand apart in the source and are kept apart here.

How the values were obtained:
[1] = system: sheep red blood cells; test: Haemolysis; type: cell-based; conditions: 1 h, vs Triton X-100 100% lysis
Description: (§1) Samples were treated at 37 °C with shaking for 1 h and then centrifuged. Supernatants were collected and absorbances were measured at 405 nm in a Tecan InfiniteM200 Pro microplate reader.

[2] = system: P. aeruginosa; test: MIC of known DHFR inhibitors against P. aeruginosa; type: cell-based, Pseudomonas aeruginosa; conditions: strain not named
[3] = system: Pseudomonas aeruginosa PA14; test: MIC against P. aeruginosa PA14 in LB broth; type: cell-based
Description: (§2) Overnight cultures were diluted 1:150 in LB broth and added to a 96-well plate. Antibiotics were serially diluted 1:2 and added to columns of the 96-well plate and grown at 37 °C with continuous shaking. Cell growth was measured using optical density at 600 nm (OD600). MIC assays were performed in either BioTek Synergy HT or Tecan InfiniteM200 Pro microplate readers.

[4] = system: P. aeruginosa PA14 mexA transposon mutant; test: microbe, parasite or virus in culture; type: cell-based; conditions: Pseudomonas aeruginosa
Description: as §2
(§3) P. aeruginosa PA14 transposon mutants were generated by the Ausubel Lab (https://pa14.mgh.harvard.edu/cgi-bin/pa14/home.cgi)[67]. The MICs of fluorofolin and TMP against strains with disrupted MexA, MexB and OprM were determined as above and compared to the parental strain. As transposon mutants in MexB were represented twice in this collection, the MIC was confirmed across both mutant strains.

[5] = system: P. aeruginosa PA14 oprM transposon mutant; test: microbe, parasite or virus in culture; type: cell-based; conditions: Pseudomonas aeruginosa
Description: as §2, §3

[6] = system: P. aeruginosa PA14 mexB transposon mutant; test: microbe, parasite or virus in culture; type: cell-based; conditions: Pseudomonas aeruginosa
Description: as §2, §3

[7] = Haemolysis; type: cell-based, sheep; conditions: sheep, defibrinated sheep red blood cells, 1 h, vs Triton X-100 100% lysis
Description: as §1

[8] = system: P. aeruginosa PA14 folate metabolism (dUMP, AICAR, GAR); test: Metabolomics (LC–MS) of treated PA14; type: cell-based, Pseudomonas aeruginosa; conditions: PA14, 15 min
Description: Metabolites were extracted by vacuum filtering 15 ml of treated cells using 0.45 μm HNWP Millipore nylon membranes and placing the filters into an ice-cold quenching solution of 40:40:20 methanol:acetonitrile:H2O. Extracts were kept on dry ice for 1 h and centrifuged at 16,000 g for 1 h at 4 °C. The supernatant was kept at -80 °C until mass spectrometry analysis. Liquid chromatography-mass spectrometry (LC-MS) analysis of metabolites was performed on an Orbitrap Exploris 240 mass spectrometer coupled with hydrophilic interaction liquid chromatography (HILIC)[68]. […] Waters 196006724), with a gradient of solvent A (95 vol. % H2O, 5 vol. % acetonitrile, with 20 mM ammonium acetate and 20 mM ammonium hydroxide, pH 9.4) and solvent B (acetonitrile). Flow rate was 0.15 ml min^-1 and column temperature was set at 25 °C. […] Raw mass spectrometry data were converted to mzXML format by MSConvert (ProteoWizard). Pick-peaking was done on […].0.8.0, Elucidata).

[9] = system: P. aeruginosa PA14; test: Colony-forming units counting after antibiotic treatment; type: cell-based, Pseudomonas aeruginosa; conditions: 2× MIC (fluorofolin 6.2, TMP 250, polymixin B 4 μg ml^−1)
Description: P. aeruginosa PA14 overnight cultures were diluted 1:100 and grown to exponential phase (OD600 = 0.4–0.6). Cultures were diluted 1:10 and treated with antibiotic. At each time point, 150 μl of culture was removed, serial diluted 1:10 six times and plated onto LB agar plates. Plates were grown overnight at 37 °C, after which visible colonies were counted. C.f.u.s ml^−1 are reported from dilutions in which ~10–100 single colonies were visible.

[10] = system: P. aeruginosa PA14; type: cell-based, Pseudomonas aeruginosa; conditions: PA14, 0.25 h
Description: Overnight P. aeruginosa PA14 or E. coli lptD4213 cultures were diluted 1:100 and grown to mid exponential phase at 37 °C. Cultures were diluted 1:10 into PBS and treated with antibiotics for 15 min. P. aeruginosa PA14 was stained with TO-PRO-3 (640 nm excitation, 670/30 nm emission) to measure cell membrane integrity. E. coli lptD4213 was stained with both TO-PRO-3 and DiOC2(3) (ThermoFisher B34950) to measure cell membrane integrity and membrane potential. DiOC2(3) was evaluated as a ratio of green (488 nm excitation, 525/50 nm emission) to red (488 nm excitation, 610/20 nm emission)[66]. The LSRII flow cytometer (BD Biosciences) at the Flow Cytometry Resource Facility, Princeton University, was used to measure the fluorescent intensities of both dyes in response to antibiotic treatment. 100,000 events were recorded for each data file. Gates for permeabilization were determined using polymixin B (Sigma-Aldrich P1004) and untreated controls. Gates for depolarization were determined using carbonyl cyanide m-chlorophenyl hydrazone (CCCP) as a positive control. Data were analysed using FlowJo v.10 software.

[11] = 2× MIC (fluorofolin 6.3, TMP 250 μg ml^−1), one value per replicate

Nc1nc(N)c2c(ccc3c2ccn3Cc2ccc(-c3ccccc3)cc2)n1 [IRS-16]
% Hemolysis, Mean ([1]; 0.78125 ug/mL): 6.068% | % Hemolysis, Mean ([1]; 1.5625 ug/mL): 12.9642% | % Hemolysis, Mean ([1]; 3.125 ug/mL): 26.947% | % Hemolysis, Mean ([1]; 6.25 ug/mL): 25.0196% | % Hemolysis, Mean ([1]; 12.5 ug/mL): 26.9567% | % Hemolysis, Mean ([1]; 25 ug/mL): 30.487% | % Hemolysis, Mean ([1]; 50 ug/mL): 39.1325% | MIC [2]: > 50 µg/mL

COc1cc(Cc2cnc(N)nc2N)cc(OC)c1OC [Trimethoprim, trimethoprim, reference compound]
MIC ([3]; P. aeruginosa PA14): 125 µg/mL | MIC ([3]; Pseudomonas aeruginosa, Wildtype PA14, control for each drug stock, read-out: MIC): 125 µg/mL | MIC [4]: 50 µg/mL | MIC [5]: 25 µg/mL | MIC [6]: 25 µg/mL | hemolysis at 1 h, 0.78125 ug/mL ([7]; 0.78125 ug/mL): 0.423% | hemolysis at 1 h, 1.5625 ug/mL ([7]; 1.5625 ug/mL): 0.123% | hemolysis at 1 h, 3.125 ug/mL ([7]; 3.125 ug/mL): 0.0766% | hemolysis at 1 h, 6.25 ug/mL ([7]; 6.25 ug/mL): 1.27% | hemolysis at 1 h, 12.5 ug/mL ([7]; 12.5 ug/mL): 0.258% | hemolysis at 1 h, 25 ug/mL ([7]; 25 ug/mL): 0.606% | hemolysis at 1 h, 50 ug/mL ([7]; 50 ug/mL): 4.08% | change of AICAR and dUMP ([8]; 2× MIC): significant upregulation | Normalized Ion Counts AICAR [8, 11]: 1099947 and 1907694 and 151411 | Normalized Ion Counts GAR [8, 11]: 163607 and 121038 and 24881.8 | Normalized Ion Counts dUMP [8, 11]: 2000000 and 3000000 | PA14 CFU/mL, Mean ([9]; Time 0 h): 197000 CFU/mL | PA14 CFU/mL, Mean ([9]; Time 1 h): 178000 CFU/mL | PA14 CFU/mL, Mean ([9]; Time 2 h): 187000 CFU/mL | PA14 CFU/mL, Mean ([9]; Time 4 h): 338889 CFU/mL | Permeabilized (TO-PRO-3 gate) [10]: 0.42
